The values below come from PubChem BioAssay AID290 (DTP/NCI, 2004).

Where “and” joins values, the source holds several entries; their conditions need not be identical. Identical values can stand only once. Inconclusive results are not listed.

The subject of this assay is mice, P1798 lymphosarcoma sc, survival or tumor weight T/C. As to the kind of experiment: NCI In Vivo Anticancer Drug Screen. Data for tumor model P1798 Lymphosarcoma (subcutaneous) in unknown mice. Particulars: endpoint: mean tumor weight, higher = larger tumour. As to the method: The antitumor activity of compounds was measured in mice bearing transplantable tumors. Survival or tumor size were measured and the results are expressed as the measurement made in the treated group (T) divided by the measurement made in the vehicle treated control group (C). The tumor model used in this assay is P1798 Lymphosarcoma (subcutaneous) in unknown mice

[1] abbreviates: dose: 62.5 mg/kg/injection, schedule: Q01DX010 (ip), vehicle: carboxymethylcellulose (CMC).
Setting [2] is: dose: 125.0 mg/kg/injection, schedule: Q01DX010 (ip), vehicle: carboxymethylcellulose (CMC).
The mark [3] stands for this setting: dose: 250.0 mg/kg/injection, schedule: Q01DX010 (ip), vehicle: carboxymethylcellulose (CMC).
Setting [4] is: dose: 125.0 mg/kg/injection, schedule: Q01DX010 (ip), vehicle: saline.
[5] abbreviates: dose: 250.0 mg/kg/injection, schedule: Q01DX010 (ip), vehicle: saline.
[6] abbreviates: dose: 500.0 mg/kg/injection, schedule: Q01DX010 (ip), vehicle: saline.

Turning to `Nc1nc(=S)c2ncn(C3OC(CO)C(O)C3O)c2[nH]1` (stereo not drawn), the T/C (dose: 0.31 mg/kg/injection, schedule: Q01DX010 (ip), vehicle: carboxymethylcellulose (CMC)) was 79 % of control; the T/C (dose: 0.63 mg/kg/injection, schedule: Q01DX010 (ip), vehicle: carboxymethylcellulose (CMC)) was 71 % of control; the T/C (dose: 1.25 mg/kg/injection, schedule: Q01DX010 (ip), vehicle: carboxymethylcellulose (CMC)) is 50 % of control; the T/C (dose: 2.0 mg/kg/injection, schedule: Q01DX010 (ip), vehicle: saline) is 55 % of control; the T/C (dose: 2.5 mg/kg/injection, schedule: Q01DX010 (ip), vehicle: carboxymethylcellulose (CMC)) was 31 % of control; the T/C (dose: 4.0 mg/kg/injection, schedule: Q01DX010 (ip), vehicle: saline) was 63 % of control.
For the compound `CCNc1nncs1`, the T/C reads like this: (dose: 18.0 mg/kg/injection, schedule: Q01DX010 (ip), vehicle: carboxymethylcellulose (CMC)) 93 % of control; (dose: 37.0 mg/kg/injection, schedule: Q01DX010 (ip), vehicle: carboxymethylcellulose (CMC)) 67 % of control.
With `O=C(O)c1ccc(-c2ccccc2)cc1`, the T/C runs as follows: under setting [1], 101 % of control; under setting [2], 92 % of control; under setting [3], 95 % of control.
As to `O=c1cn[nH]c(=O)[nH]1`, the T/C (dose: 375.0 mg/kg/injection, schedule: Q01DX010 (ip), vehicle: carboxymethylcellulose (CMC)) is 90 % of control.
With `O=CCC(O)C(O)C(O)CO` (stereo not drawn), the T/C was 67 % of control (dose: 16.0 mg/kg/injection, schedule: Q01DX010 (ip), vehicle: carboxymethylcellulose (CMC)); 74 % of control (dose: 31.2 mg/kg/injection, schedule: Q01DX010 (ip), vehicle: carboxymethylcellulose (CMC)); 70 % of control under setting [1]; 36 % of control and 61 % of control under setting [2]; 44 % of control under setting [3]; 42 % of control (dose: 500.0 mg/kg/injection, schedule: Q01DX010 (ip), vehicle: carboxymethylcellulose (CMC)). In addition, the T/C (dose: 1000.0 mg/kg/injection, schedule: Q01DX010 (ip), vehicle: carboxymethylcellulose (CMC)) is 19 % of control.
`C[C@]12CCC(=O)C=C1CC[C@H]1[C@@H]3CC[C@](O)(C(=O)CO)[C@@]3(C)C[C@H](O)[C@@]12F`: the T/C runs as follows: (dose: 0.5 mg/kg/injection, schedule: Q01DX011 (sc), vehicle: steriod suspending solution) 76 % of control; (dose: 1.0 mg/kg/injection, schedule: Q01DX011 (sc), vehicle: steriod suspending solution) 36 % of control; (dose: 2.0 mg/kg/injection, schedule: Q01DX011 (sc), vehicle: steriod suspending solution) 61 % of control; (dose: 2.5 mg/kg/injection, schedule: Q01DX015 (ip), vehicle: carboxymethylcellulose (CMC)) 103 % of control; (dose: 3.5 mg/kg/injection, schedule: Q01DX011 (sc), vehicle: steriod suspending solution) 64 % of control; (dose: 5.0 mg/kg/injection, schedule: Q01DX015 (ip), vehicle: carboxymethylcellulose (CMC)) 105 % of control.
As for `COc1ccc(-c2c(CC(=O)O)c3cc(OC)ccc3n2Cc2ccc(Cl)cc2)cc1`, the T/C reads like this: under setting [4], 105 % of control; under setting [5], 108 % of control; under setting [6], 112 % of control; (dose: 1000.0 mg/kg/injection, schedule: Q01DX010 (ip), vehicle: saline) 110 % of control.
On to `C[C@H](N)C(=O)N[C@@H]1[C@H]2C(=C(O)C[C@@H](O)[C@@H]2O)C(=O)O[C@@H]1C`, for which the T/C is, setting by setting: under setting [4], 61 % of control; under setting [5], 84 % of control; under setting [6], 64 % of control.
For `O=C1CCC(N2C(=O)c3ccccc3C2=O)C(=O)N1` (stereo not drawn), the T/C by setting is: (dose: 18.75 mg/kg/injection, schedule: Q01DX010 (ip), vehicle: carboxymethylcellulose (CMC)) 122 % of control; (dose: 37.5 mg/kg/injection, schedule: Q01DX010 (ip), vehicle: carboxymethylcellulose (CMC)) 68 % of control; (dose: 75.0 mg/kg/injection, schedule: Q01DX010 (ip), vehicle: carboxymethylcellulose (CMC)) 92 % of control; (dose: 150.0 mg/kg/injection, schedule: Q01DX010 (ip), vehicle: carboxymethylcellulose (CMC)) 83 % of control.
Take `N#CCSc1ncnc2nc[nH]c12`: the T/C (dose: 25.0 mg/kg/injection, schedule: Q01DX010 (ip), vehicle: carboxymethylcellulose (CMC)) was 49 % of control and the T/C (dose: 50.0 mg/kg/injection, schedule: Q01DX010 (ip), vehicle: carboxymethylcellulose (CMC)) is 46 % of control.
